Among the test systems are MALME-3M melanoma; SR leukemia; UACC-62 melanoma; U251 CNS; K-562 leukemia; M14 melanoma; SK-OV-3 ovarian; SF-295 CNS; NCI-H226 lung; CCRF-CEM leukemia.
Holding throughout (assay): NCI anticancer screen, dose series, 48 h

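Following 48 hours of exposure in 96-well plates, responses at five concentrations were used to interpolate endpoints linearly. GI50 is the concentration that inhibits growth by half. TGI is the concentration that stops growth completely.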

With `CN(Cc1cc(Cl)cc(Cl)c1O)Cc1c(O)ccc2ccccc12`, the TGI with MALME-3M melanoma came out at 28.9 µM; in the test with SR leukemia, 68.2 µM; with UACC-62 melanoma, 29.3 µM; with U251 CNS it was 30.4 µM; with K-562 leukemia, 61 µM; in the test on M14 melanoma, 39.2 µM. Further, the figures for the TGI with SK-OV-3 ovarian, in the test with SF-295 CNS and with NCI-H226 lung were 36.8 µM, 36.1 µM and 37.7 µM, respectively.

As to `CC#CC1C2CCCC1(CSc1ccccc1)NC(=O)O2` (stereo not given), the TGI with MALME-3M melanoma, with SR leukemia, in the test on UACC-62 melanoma, in the test with U251 CNS, in the test on K-562 leukemia and with M14 melanoma was above 100 µM in each case. The TGI with SK-OV-3 ovarian, in the test on SF-295 CNS and in the test with NCI-H226 lung was above 100 µM each time.

In the case of `CC(C)(C)CC(N)=O`, the TGI in the test on SR leukemia, in the test on UACC-62 melanoma, with U251 CNS, in the test on CCRF-CEM leukemia, in the test on K-562 leukemia and in the test on M14 melanoma was above 100 µM in each case. For the same molecule, the TGI with SK-OV-3 ovarian, in the test with SF-295 CNS and with NCI-H226 lung was above 100 µM each time.

As to `Cn1c(NCC(O)CN2CCCC2)cc(=O)n(C)c1=O` (stereo not given), the GI50 is above 100 µM with MALME-3M melanoma; above 100000 nM with SR leukemia; above 100 µM in the test on UACC-62 melanoma; above 100000 nM in the test on U251 CNS; above 100000 nM in the test on CCRF-CEM leukemia; above 100000 nM in the test with K-562 leukemia. Further, the figures for the GI50 in the test on SK-OV-3 ovarian, in the test on SF-295 CNS and in the test on NCI-H226 lung were above 100000 nM, above 100 µM and above 100 µM, respectively. For the same molecule, the TGI in the test on MALME-3M melanoma, in the test on SR leukemia, in the test on UACC-62 melanoma, in the test with U251 CNS, in the test with CCRF-CEM leukemia and in the test on K-562 leukemia was above 100 µM in each case. Moreover, the TGI in the test with SK-OV-3 ovarian, in the test with SF-295 CNS and in the test with NCI-H226 lung was above 100 µM throughout.

`NNC(=O)N/N=C1\C(=O)N(c2ccc(Cl)c(Cl)c2)C(=O)C(=O)C1c1nc2ccccc2s1` (stereo not given): the TGI in the test on MALME-3M melanoma, with SR leukemia, in the test on UACC-62 melanoma, with U251 CNS, in the test on CCRF-CEM leukemia and with M14 melanoma was above 100 µM each time. Further, the TGI in the test on SK-OV-3 ovarian, in the test with SF-295 CNS and with NCI-H226 lung was above 100 µM in each case.

As to `COc1ccc(C2C=C(c3ccc4c(c3)OCO4)Oc3c2c(=O)oc2ccccc32)cc1OC` (stereo not given), the TGI in the test with MALME-3M melanoma is above 100 µM; in the test with SR leukemia it was 0.594 µM; with UACC-62 melanoma it was above 100 µM; in the test with U251 CNS, above 100 µM; in the test with CCRF-CEM leukemia it was above 100 µM; in the test on M14 melanoma, above 100 µM. For the same molecule, the TGI with SK-OV-3 ovarian was above 69.6 µM; in the test with SF-295 CNS it was above 100 µM; in the test on NCI-H226 lung it was 9.6 µM.

For `CC(=O)Nc1ccc(COC(O)CN2CCCCC2)cc1[N+](=O)[O-]` (stereo not given), the TGI in the test on MALME-3M melanoma, in the test on SR leukemia, in the test with UACC-62 melanoma, in the test on U251 CNS, in the test on CCRF-CEM leukemia and in the test with K-562 leukemia was above 100 µM each time. In addition, the TGI in the test with M14 melanoma, with SF-295 CNS and in the test on NCI-H226 lung was above 100 µM in each case.

`Cc1cc(C(C)(C)C)cc(CNC2CCCCC2)c1O`: the TGI is 27.8 µM in the test on MALME-3M melanoma; 53.6 µM with SR leukemia; 29.6 µM in the test with UACC-62 melanoma; 29.9 µM in the test with U251 CNS; 91 µM with CCRF-CEM leukemia; 51.3 µM in the test on K-562 leukemia. Besides, the TGI came to 29.4 µM in the test on M14 melanoma, 41.9 µM in the test with SK-OV-3 ovarian and 31.7 µM in the test with SF-295 CNS.

As to `COc1cc(-c2cc(-c3cc(OC)c(OC)c(OC)c3)nc3nc(N)[nH]c(=O)c23)ccc1Oc1ccnc2cc(Cl)ccc12`, the GI50 in the test on MALME-3M melanoma was 3.5 µM; with SR leukemia it was 468 nM; in the test with UACC-62 melanoma, 3.55 µM; with U251 CNS, 2460 nM; with CCRF-CEM leukemia it was 2660 nM; with K-562 leukemia, 379 nM. Moreover, the figures for the GI50 in the test on SK-OV-3 ovarian, in the test with SF-295 CNS and in the test on NCI-H226 lung were 2950 nM, 4.52 µM and 13.4 µM, respectively. Moreover, the TGI in the test with MALME-3M melanoma was above 100 µM; in the test with SR leukemia, 29.6 µM; in the test with UACC-62 melanoma it was 25.2 µM; in the test with U251 CNS, 7.32 µM; in the test on CCRF-CEM leukemia, above 100 µM; in the test with K-562 leukemia it was above 100 µM. The values for the TGI with SK-OV-3 ovarian, in the test with SF-295 CNS and in the test with NCI-H226 lung were 9.36 µM, 85.5 µM and 35.9 µM, respectively.

For `COc1ccc(/C=C/C(=O)c2ccc(OC)c(OC)c2)cc1O`, the GI50 is 15.8 µM with MALME-3M melanoma; 393 nM in the test with SR leukemia; 11.2 µM with UACC-62 melanoma; 3590 nM in the test on U251 CNS; 3510 nM in the test with CCRF-CEM leukemia; 3310 nM in the test on K-562 leukemia. The GI50 in the test on M14 melanoma is 10.9 µM; with SK-OV-3 ovarian, 6510 nM; in the test with NCI-H226 lung, 11.1 µM. Besides, the TGI with MALME-3M melanoma was 31.7 µM; in the test with SR leukemia, above 100 µM; in the test with UACC-62 melanoma, 24.3 µM; in the test with U251 CNS, 14.6 µM; in the test on CCRF-CEM leukemia it was 23.9 µM; in the test with K-562 leukemia, above 100 µM. Also, the TGI with M14 melanoma is 23.3 µM; in the test on SK-OV-3 ovarian, 45 µM; in the test on NCI-H226 lung, 25.4 µM.

`CC(=O)c1cc(C(=O)c2ccc3c(c2)Sc2ccccc2N3)c2cc(C)ccn12`: the GI50 with MALME-3M melanoma was 0.0429 µM; in the test on SR leukemia, 38.6 nM; in the test on U251 CNS, 138 nM; with CCRF-CEM leukemia it was 257 nM; in the test with K-562 leukemia, 41 nM; in the test on M14 melanoma, 0.0593 µM. The GI50 in the test on SK-OV-3 ovarian is 189 nM; in the test with SF-295 CNS it was 0.036 µM; in the test on NCI-H226 lung, 3.91 µM. The TGI in the test with MALME-3M melanoma, in the test on SR leukemia, in the test with U251 CNS, in the test on CCRF-CEM leukemia, in the test with K-562 leukemia and in the test with M14 melanoma was above 100 µM each time. The TGI in the test on SK-OV-3 ovarian was above 100 µM; with SF-295 CNS, 4.15 µM; in the test with NCI-H226 lung, above 100 µM.
